This passage reports IC50 results from US20250101034A1, “COMPOSITIONS USEFUL FOR MODULATING SPLICING” (SKYHAWK THERAPEUTICS, INC., priority 2021, published 2025).

In one experiment the test system is total ATXN3 protein. In words: ATXN3 total protein assay (MSD, SK-N-MC cells). The experiment is classed as cell-based, Human. Conditions: 48 hours incubation, read-out: ATXN3 Potency - Protein IC50. On the procedure: Human neuroblastoma SK-N-MC cells were seeded at 10,000 cells/well in 384 well plates one day prior to compound treatment. The concentrations of compounds were tested at appropriate doses ranging from 30 μM to 0.6 nM. After incubation for 48 hours, the cells were lysed with 25 μL of lysis buffer containing protease inhibitors, and total ATXN3 protein levels were assessed by Mesoscale Discovery (MSD) assay developed with one pair of anti-ATXN3 antibodies. The capture and detect antibodies were raised in mouse and rabbit respectively. Anti-rabbit MSD-ST antibody was used for secondary antibody.
ATXN3 recombinant protein was used for standards. The readouts were captured with 35 μL of MSD read buffer and multi-array 384-well high binding plates.

The subject of experiment [1] is ATXN3 transcripts containing exon 4 (E4E5). In words: ATXN3 quantitative splicing assay (qPCR, SK-N-MC cells). Particulars: Homo sapiens, 24 h treatment, qPCR E4E5 primers/probe, read-out: ATXN3 Potency - Splicing E4E5 IC50. The experiment is classed as cell-based. On the procedure: Human neuroblastoma SK-N-MC cells were plated in 384-well plates at 20,000 cells/well. Twenty-four hours after plating, cells were treated with compounds for 24 h at appropriate concentrations ranging from 30 μM to 0.6 nM (0.3% DMSO). Treated cells were lysed in 15 μL of lysis buffer, and cDNA was synthesized using the Fast Advanced Cells-to-Ct kit. Two μL of each cDNA was used in qPCR reactions to confirm the exon 4 skipped transcripts of ATXN3. A second set of primers/probe E4E5 was used to detect the transcripts containing exon 4. The third set of primers/probe E8E9 was used to detect total gene level of ATXN3. The qPCR reactions were prepared in 384-well plates in 10 μL volume, using TaqMan™ Fast Advanced Master Mix with primers and probes shown in the table below. Reactions were run in a Quant Studio 6 qPCR instrument with default settings.
The primers and probes are listed below in Table 4.
(Quantitative PCR measures a nucleic acid by following its amplification.)

As usually defined, the IC50 is the concentration that inhibits the measured activity by half.

With `Cc1c(C[C@@H](N)CCO)sc2c(NCc3ccco3)cnnc12` [Compound 29, (3S)-3-amino-4-(4-{[(furan-2-yl)methyl]amino}-7-methylthieno[3,2-c]pyridazin-6-yl)butan-1-ol], the IC50 (in the experiment with total ATXN3 protein; in experiment [1]) was 0.501 to 5 µM throughout.
On to `CSC[C@H](N)Cc1sc2c(NCc3ccco3)cnnc2c1C` [Compound 30, 6-[(2R)-2-amino-3-(methylsulfanyl)propyl]-N-[(furan-2-yl)methyl]-7-methylthieno[3,2-c]pyridazin-4-amine], for which the IC50 (in the experiment on total ATXN3 protein; in experiment [1]) was 0.501 to 5 µM in each case.
For `Cc1c(C[C@@H](N)CCF)sc2c(NCc3ccco3)cnnc12` [Compound 31, 6-[(2S)-2-amino-4-fluorobutyl]-N-[(furan-2-yl)methyl]-7-methylthieno[3,2-c]pyridazin-4-amine], the IC50 (in the experiment on total ATXN3 protein; in experiment [1]) was 0.501 to 5 µM each time.
Regarding `Cc1c(C[C@@H](N)CS(C)(=O)=O)sc2c(NCc3ccco3)cnnc12` [Compound 32, 6-[(2R)-2-amino-3-methanesulfonylpropyl]-N-[(furan-2-yl)methyl]-7-methylthieno[3,2-c]pyridazin-4-amine], the IC50 (in the experiment with total ATXN3 protein; in experiment [1]) was 10 to 40 µM each time.
On to `Cc1c(C[C@@H](N)C[S+](C)[O-])sc2c(NCc3ccco3)cnnc12` (stereo partly drawn) [Compound 33, 6-[(2R)-2-amino-3-methanesulfinylpropyl]-N-[(furan-2-yl)methyl]-7-methylthieno[3,2-c]pyridazin-4-amine], for which the IC50 (in the experiment with total ATXN3 protein; in experiment [1]) was 10 to 40 µM each time.
With `C=C(C)Cc1sc2c(NCc3ccco3)cnnc2c1C` [Compound 34, N-[(furan-2-yl)methyl]-7-methyl-6-(2-methylprop-2-en-1-yl)thieno[3,2-c]pyridazin-4-amine], the IC50 (in the experiment with total ATXN3 protein; in experiment [1]) was 10 to 40 µM in each case.
`C[C@H](N)Cc1sc2c(NCc3cccs3)cnnc2c1Br` [Compound 35, 6-[(2S)-2-aminopropyl]-7-bromo-N-[(thiophen-2-yl)methyl]thieno[3,2-c]pyridazin-4-amine]: the IC50 (with total ATXN3 protein; in experiment [1]) was 0.101 to 0.5 µM throughout.
As to `C[C@H](N)Cc1sc2c(NCc3cccs3)cnnc2c1Cl` [Compound 36, 6-[(2S)-2-aminopropyl]-7-chloro-N-[(thiophen-2-yl)methyl]thieno[3,2-c]pyridazin-4-amine], the IC50 (with total ATXN3 protein; in experiment [1]) was 0.101 to 0.5 µM throughout.
Regarding `C=C(C)c1sc2c(NCc3cccs3)cnnc2c1C` [Compound 37, 7-methyl-6-(prop-1-en-2-yl)-N-(thiophen-2-ylmethyl)thieno[3,2-c]pyridazin-4-amine], the IC50 (in the experiment with total ATXN3 protein; in experiment [1]) was 10 to 40 µM throughout.
For `Cc1c(C[C@@H](N)CC#N)sc2c(NCc3ccco3)cnnc12` [Compound 38, (3S)-3-amino-4-(4-{[(furan-2-yl)methyl]amino}-7-methylthieno[3,2-c]pyridazin-6-yl)butanenitrile], the half-inhibitory concentration (IC50) (in the experiment on total ATXN3 protein; in experiment [1]) was 5 to 10 µM throughout.
For `C[C@H](N)Cc1cc2nncc(NCc3cccs3)c2s1` [Compound 39, 6-[(2S)-2-aminopropyl]-N-[(thiophen-2-yl)methyl]thieno[3,2-c]pyridazin-4-amine], the IC50 (in the experiment on total ATXN3 protein; in experiment [1]) was 0.501 to 5 µM throughout.
Turning to `CCc1csc2c(NCc3cccs3)cnnc12` [Compound 40, 7-ethyl-N-[(thiophen-2-yl)methyl]thieno[3,2-c]pyridazin-4-amine], the IC50 (in the experiment with total ATXN3 protein; in experiment [1]) was 10 to 40 µM each time.
Consider `Cc1c(C[C@H](C)N)sc2c(NCn3cccc3)cnnc12` [Compound 43, 6-[(2S)-2-aminopropyl]-7-methyl-N-[(1H-pyrrol-1-yl)methyl]thieno[3,2-c]pyridazin-4-amine], for which the IC50 (with total ATXN3 protein; in experiment [1]) was 5 to 10 µM each time.
Take `Cc1c(C[C@H](C)N)sc2c(NCc3cncs3)cnnc12` [Compound 44, 6-[(2S)-2-aminopropyl]-7-methyl-N-[(1,3-thiazol-5-yl)methyl]thieno[3,2-c]pyridazin-4-amine]: the IC50 (in the experiment on total ATXN3 protein; in experiment [1]) was 10 to 40 µM each time.
